Some results are limits rather than exact numbers.

Holding throughout (type): functional, cell-based
What all share (conditions): Mus musculus

Assay [1] concerns L1210. As to the kind of experiment: Effective concentration for growth inhibition of L1210 cells in culture in the presence of 10 uM of dThd.
The subject of assay [2] is S49. The assay can be described thus: Effective concentration for growth inhibition of S49 cells in culture in the presence of 10 uM of dUrd.
The test system of assay [3] is S49. As to the kind of experiment: Effective concentration to inhibit growth of S49 cells in culture.
Assay [4] concerns L1210. As to the kind of experiment: Effective concentration for growth inhibition of L1210 cells in culture in the presence of 10 uM of dUrd.
Assay [5] deals with L1210. As to the kind of experiment: Effective concentration to inhibit growth of L1210 cells in culture.

For `O=c1[nH]c(=O)n([C@H]2C[C@H](O)[C@@H](CO)O2)cc1[N+](=O)[O-]`, the EC50 in the assay on L1210 [1] is above 3000 nM; in the assay on S49 [2] it was 60 nM; in the assay with S49 [3] it was 30 nM; in the assay on L1210 [4], 120 nM; in the assay with L1210 [5], 33 nM.

(Values after ChEMBL document CHEMBL1122177, “Mechanism of action of 5-nitro-2'-deoxyuridine” (J Med Chem, 1982).)
